The text below walks through data of BindingDB's records for doi:10.1021/jm060133g (Pfizer, 2006).

The target in the first assay is Neprilysin (Canis familiaris). Description: Inhibition of dog NEP.
For the compound `CCCC(CC1(NC(=O)c2ccc(=O)n(Cc3ccccc3)c2)CCCC1)C(=O)O` (configuration not stated) [2-((1-(1-benzyl-2-oxo-1,2-dihydropyridine-5-carboxamido)cyclopentyl)methyl)pentanoic acid], the 50% inhibitory concentration (IC50) – broadly, the concentration that inhibits the measured activity by half – was above 3000 nM.

In the case of `CCCC(CC1(c2nnc(-c3ccc(=O)n(Cc4ccccc4)c3)o2)CCCC1)C(=O)O` (configuration not stated) [2-((1-(5-(1-benzyl-6-oxo-1,6-dihydropyridin-3-yl)-1,3,4-oxadiazol-2-yl)cyclopentyl)methyl)pentanoic acid], the IC50 came out at 1140 nM. That is a single-digit micromolar value.

Regarding `CCCC(CC1(C(=O)Nc2ncccc2CC)CCCC1)C(=O)O` (configuration not stated) [2-((1-((3-ethylpyridin-2-yl)carbamoyl)cyclopentyl)methyl)pentanoic acid], the IC50 is 1710 nM.

As for `CCCC(CC1(C(=O)NCCc2ccc(Cl)cc2)CCCC1)C(=O)O` (configuration not stated) [2-((1-((4-chlorophenethyl)carbamoyl)cyclopentyl)methyl)pentanoic acid], the IC50 is above 2000 nM.

The compound `CCCC(CC1(C(=O)Nc2cc(C)ccn2)CCCC1)C(=O)O` (configuration not stated) [2-((1-((4-methylpyridin-2-yl)carbamoyl)cyclopentyl)methyl)pentanoic acid] came in with an IC50 of 630 nM.

`CCCC(CC1(C(=O)Nc2cccc(CC)n2)CCCC1)C(=O)O` (configuration not stated) [2-((1-((6-ethylpyridin-2-yl)carbamoyl)cyclopentyl)methyl)pentanoic acid] returned an IC50 above 2000 nM.

Target in the next assay: not listed separately
Description: Inhibition of dog ACE.
With `CCCC(CC1(C(=O)NC2(CO)Cc3ccccc3C2)CCCC1)C(=O)O` (racemic) [rac-2-((1-((2-(hydroxymethyl)-2,3-dihydro-1H-inden-2-yl)carbamoyl)cyclopentyl)methyl)pentanoic acid], the IC50 is above 3000 nM.

The compound `CCCC(CC1(C(=O)Nc2nnc(CC)s2)CCCC1)C(=O)O` (racemic) [rac-2-((1-((5-ethyl-1,3,4-thiadiazol-2-yl)carbamoyl)cyclopentyl)methyl)pentanoic acid] showed an IC50 above 3000 nM.

`CCCC(CC1(C(=O)Nc2nnc(C)s2)CCCC1)C(=O)O` (racemic) [rac-2-((1-((5-methyl-1,3,4-thiadiazol-2-yl)carbamoyl)cyclopentyl)methyl)pentanoic acid] showed an IC50 above 3000 nM.

On to `CCCC(CC1(c2nnc(-c3ccc(=O)n(Cc4ccccc4)c3)o2)CCCC1)C(=O)O` (configuration not stated) [2-((1-(5-(1-benzyl-6-oxo-1,6-dihydropyridin-3-yl)-1,3,4-oxadiazol-2-yl)cyclopentyl)methyl)pentanoic acid], for which the IC50 is above 3000 nM.

Turning to `CCCC(CC1(C(=O)Nc2nncs2)CCCC1)C(=O)O` (configuration not stated) [2-((1-((1,3,4-thiadiazol-2-yl)carbamoyl)cyclopentyl)methyl)pentanoic acid], the IC50 was above 3000 nM.

`CCCC(CC1(C(=O)Nc2cn(CC)nn2)CCCC1)C(=O)O` (configuration not stated) [2-((1-((1-ethyl-1H-1,2,3-triazol-4-yl)carbamoyl)cyclopentyl)methyl)pentanoic acid] displayed an IC50 above 3000 nM.

Compound `CCCC(CC1(C(=O)NC2Cc3ccccc3C2)CCCC1)C(=O)O` (configuration not stated) [2-((1-((2,3-dihydro-1H-inden-2-yl)carbamoyl)cyclopentyl)methyl)pentanoic acid] had an IC50 above 3000 nM.

For `CCCC(CC1(C(=O)NC2CCCC(C(=O)N(C)C)C2)CCCC1)C(=O)O` (configuration not stated) [2-((1-((3-(dimethylcarbamoyl)cyclohexyl)carbamoyl)cyclopentyl)methyl)pentanoic acid], the IC50 was above 3000 nM.

Consider `CCCC(CC1(C(=O)Nc2nnc(CC3CC3)s2)CCCC1)C(=O)O` (configuration not stated) [2-((1-((5-(cyclopropylmethyl)-1,3,4-thiadiazol-2-yl)carbamoyl)cyclopentyl)methyl)pentanoic acid], for which the IC50 was above 3000 nM.

`CCCC(CC1(C(=O)Nc2nnc(Cc3ccccc3)s2)CCCC1)C(=O)O` (configuration not stated) [2-((1-((5-benzyl-1,3,4-thiadiazol-2-yl)carbamoyl)cyclopentyl)methyl)pentanoic acid] registered an IC50 above 3000 nM.

`CCc1nnc(NC(=O)C2(CC(CCC(C)C)C(=O)O)CCCC2)s1` (configuration not stated) [2-((1-((5-ethyl-1,3,4-thiadiazol-2-yl)carbamoyl)cyclopentyl)methyl)-5-methylhexanoic acid] registered a half-maximal inhibitory concentration (IC50) above 3000 nM.

As to `CCCCC(CC1(C(=O)Nc2nnc(CC)s2)CCCC1)C(=O)O` (configuration not stated) [2-((1-((5-ethyl-1,3,4-thiadiazol-2-yl)carbamoyl)cyclopentyl)methyl)hexanoic acid], the IC50 was above 3000 nM.

The compound `CCCC(CC1(C(=O)Nc2nnc(-c3ccccc3)s2)CCCC1)C(=O)O` (configuration not stated) [2-((1-((5-phenyl-1,3,4-thiadiazol-2-yl)carbamoyl)cyclopentyl)methyl)pentanoic acid] gave an IC50 above 3000 nM.

The compound `CCCC(CC1(C(=O)Nc2ccc(OC)nn2)CCCC1)C(=O)O` (configuration not stated) [2-((1-((6-methoxypyridazin-3-yl)carbamoyl)cyclopentyl)methyl)pentanoic acid] returned an IC50 above 3000 nM.

`CCCC(CC1(C(=O)N[C@@H]2CCCC[C@@H]2CCC)CCCC1)C(=O)O` (stereo partly drawn) [2-((1-(((1R,2S)-2-propylcyclohexyl)carbamoyl)cyclopentyl)methyl)pentanoic acid]: the IC50 was above 3000 nM.

Consider `CCCC(CC1(C(=O)NCc2nnc(C)s2)CCCC1)C(=O)O` (configuration not stated) [2-((1-(((5-methyl-1,3,4-thiadiazol-2-yl)methyl)carbamoyl)cyclopentyl)methyl)pentanoic acid], for which the IC50 is above 3000 nM.

Regarding `CCCC(CC1(C(=O)N[C@H](C)c2ccccc2)CCCC1)C(=O)O` (stereo partly drawn) [2-((1-(((R)-1-phenylethyl)carbamoyl)cyclopentyl)methyl)pentanoic acid], the IC50 is above 3000 nM.

Regarding `CCCC(CC1(C(=O)NCc2ccc3c(c2)OCO3)CCCC1)C(=O)O` (configuration not stated) [2-((1-((benzo[d][1,3]dioxol-5-ylmethyl)carbamoyl)cyclopentyl)methyl)pentanoic acid], the IC50 was above 3000 nM.

In the case of `CCCC(CC1(C(=O)Nc2ccccn2)CCCC1)C(=O)O` (configuration not stated) [2-((1-(pyridin-2-ylcarbamoyl)cyclopentyl)methyl)pentanoic acid], the IC50 is above 3000 nM.

`CCC[C@H](CC1(C(=O)NC2(CO)Cc3ccccc3C2)CCCC1)C(=O)O` [(R)-2-((1-((2-(hydroxymethyl)-2,3-dihydro-1H-inden-2-yl)carbamoyl)cyclopentyl)methyl)pentanoic acid] returned an IC50 above 3000 nM.

`CCC[C@H](CC1(C(=O)Nc2nnc(CC)s2)CCCC1)C(=O)O` [(R)-2-((1-((5-ethyl-1,3,4-thiadiazol-2-yl)carbamoyl)cyclopentyl)methyl)pentanoic acid]: the IC50 was above 3000 nM.

For `CCC[C@H](CC1(C(=O)Nc2nnc(C)s2)CCCC1)C(=O)O` [(R)-2-((1-((5-methyl-1,3,4-thiadiazol-2-yl)carbamoyl)cyclopentyl)methyl)pentanoic acid], the IC50 is above 3000 nM.

`CCC[C@@H](CC1(C(=O)NC2(CO)Cc3ccccc3C2)CCCC1)C(=O)O` [(S)-2-((1-((2-(hydroxymethyl)-2,3-dihydro-1H-inden-2-yl)carbamoyl)cyclopentyl)methyl)pentanoic acid] returned an IC50 above 3000 nM.

Compound `CCC[C@@H](CC1(C(=O)Nc2nnc(CC)s2)CCCC1)C(=O)O` [(S)-2-((1-((5-ethyl-1,3,4-thiadiazol-2-yl)carbamoyl)cyclopentyl)methyl)pentanoic acid] gave an IC50 above 3000 nM.

`CCC[C@@H](CC1(C(=O)Nc2nnc(C)s2)CCCC1)C(=O)O` [(S)-2-((1-((5-methyl-1,3,4-thiadiazol-2-yl)carbamoyl)cyclopentyl)methyl)pentanoic acid]: the IC50 is above 5000 nM.

On to `CCCC(CC1(C(=O)N[C@H]2CC[C@@H](C(=O)N(C)C)CC2)CCCC1)C(=O)O` (stereo partly drawn) [cis-2-((1-((4-(dimethylcarbamoyl)cyclohexyl)carbamoyl)cyclopentyl)methyl)pentanoic acid], for which the IC50 was above 3000 nM.
